Where a name gives a salt, the structure may show the parent alone.
Tests used:
Candida albicans [1] = test: Activity against vaginal candidosis in rats (lowest oral dose active at the 14th day after infection); format: in vivo, Female Wistar rats; design: lowest effective oral dose (vaginal candidosis in rats): unit not given here; settings: oral once a day for two days, active at 14th day after infection; for lowest effective oral dose (vaginal candidosis in rats): Table I; for minimal effective dose: Candida albicans, 336 h
Description: Experiment A: Activity of Compounds (I) Against Vaginal Candidosis in Rats
Female Wistar rats of ±100 g body weight were used. They were ovariectomized and hysterectomized and after three weeks of recovery, 100 μg of oestradiol undecylate in sesame oil was given subcutaneously once a week for 3 consecutive weeks. The thus induced pseudooestrus was controlled by microscopic examination of vaginal smears. Food and water were left available ad libitum.
The rats were infected intravaginally with 8.10^5 cells of Candida albicans, grown on Sabouraud broth for 48 hours at 37° C. and diluted with saline. The date of infection varied from day +25 to day +32 after surgical intervention, depending on the appearance of signs of induced pseudo-oestrus.
The drugs under investigation were administered orally once a day for two days starting from the day of infection. For each experiment there were placebo treated controls. The results were assessed by taking vaginal smears with sterile swabs on several days after infection. The swabs were put into Sabouraud broth in petri-dishes and incubated for 48 hours a 37° C. If no growth of Candida albicans occured, i.e., when the animals were negative at the end of the experiment, this was due to drug administration because it never happened in placebo treated controls.
The Tables I, II and III below give the lowest oral dose of the drug under investigation which was found active at the 14th day after infection.

Candida albicans [2] = test: Activity against crop candidosis in turkeys (dose whereby crops of 50% of animals were completely negative); format: in vivo; settings: medicated feed for 13 consecutive days
Description: Experiment B: Activity of Compounds (I) Against Crop Candidosis in Turkeys
Turkeys of 14 days old were infected in the crop with 4.10^6 Candida albicans cells, grown on Sabouraud broth for 48 hours at 37° C. and diluted with saline. The volume of the inoculum was 1 ml. The drug under investigation were premixed in 500 mg of lacton and thereafter admixed in 1000 g of meal without any additives. The concentration of the drug under investigation in the meal was expressed in mg/kg.
The animals were given the medicated feed for 13 consecutive days starting on the day of infection. At the end of the experiment all animals were sacrificed. At autopsy the crops were removed, emptied and grinded in an ultra-turrax mixer in 15 ml of sterile saline. Colony counting was done on Sabouraud agar and the results given in the Tables I, II and III represent the ED50, i.e., the dose of the drug whereby the crops of 50% of the animals were completely negative for Candida albicans.

| SMILES | lowest effective oral dose (vaginal candidosis in rats) (Candida albicans [1]) | ED50 (crop candidosis in turkeys) (Candida albicans [2]; Table I) | other results |
| --- | --- | --- | --- |
| O=C(Nc1ccc(OC[C@H]2CO[C@](Cn3ccnc3)(c3ccc(Cl)cc3Cl)O2)cc1)C(Cl)Cl (relative stereo) [NHCOCH(Cl)2, cis-2,2-dichloro-N-{4-[2-(2,4-dichlorophenyl)-2-(1H-imidazol-1-ylmethyl)-1,3-dioxolan-4-ylmethoxy]phenyl}acetamide] | 10 | 125 mg/kg of feed | – |
| CCNC(=S)Nc1ccc(OC[C@H]2CO[C@](Cn3ccnc3)(c3ccc(Cl)cc3Cl)O2)cc1 (relative stereo) [NHCSNHC2 H5, cis-N-{4-[2-(2,4-dichlorophenyl)-2-(1H-imidazol-1-ylmethyl)-1,3-dioxolan-4-ylmethoxy]phenyl}-N'-ethylthiourea] | 5 | 125 mg/kg of feed | – |
| CCCN1CCN(c2ccc(OC[C@H]3CO[C@](Cn4ccnc4)(c4ccc(Cl)cc4Cl)O3)cc2)CC1 (relative stereo) | 2.5 | 16 mg/kg of feed | – |
| CNC(=S)Nc1ccc(OC[C@H]2CO[C@](Cn3ccnc3)(c3ccc(Cl)cc3Cl)O2)cc1 (relative stereo) [NHCSNHCH3, cis-N-{4-[2-(2,4-dichlorophenyl)-2-(1H-imidzol-1-yl-methyl)-1,3-dioxolan-4-ylmethoxy]-phenyl}-N'-methylthiourea] | 10 | 125 mg/kg of feed | – |
| CCC(C)N1CCN(c2ccc(OC[C@H]3CO[C@](Cn4cncn4)(c4ccc(Cl)cc4Cl)O3)cc2)CC1 (relative stereo) [CH(CH3)CH2CH3] | – | – | minimal effective dose (Candida albicans [1]; Table II): 2.5 mg/kg; ED50 (crop candidosis in turkeys) (Candida albicans [2]; Table II): 63 mg/kg of feed |
| COC(=O)N1CCN(c2ccc(OC[C@H]3CO[C@](Cn4ccnc4)(c4ccc(Cl)cc4Cl)O3)cc2)CC1 (relative stereo) | 2.5 | 8 mg/kg of feed | – |
| CS(=O)(=O)N1CCN(c2ccc(OC[C@H]3CO[C@](Cn4ccnc4)(c4ccc(Cl)cc4Cl)O3)cc2)CC1 (relative stereo) | 1.25 | 31 mg/kg of feed | – |
| CN(C)c1ccc(OC[C@H]2CO[C@](Cn3ccnc3)(c3ccc(Cl)cc3Cl)O2)cc1 (relative stereo) [cis-4-[2-(2,4-dichlorophenyl)-2-(1H-imidazol-1-ylmethyl)-1,3-dioxolan-4-ylmethoxy]-N,N'-dimethylbenzenamine diethanedioate.hydrate] | 10 | 31 mg/kg of feed | – |
| NC(=O)N1CCN(c2ccc(OC[C@H]3CO[C@](Cn4ccnc4)(c4ccc(Cl)cc4Cl)O3)cc2)CC1 (relative stereo) | 5 | 125 mg/kg of feed | – |
| O=C(Nc1ccc(OC[C@H]2CO[C@](Cn3ccnc3)(c3ccc(Cl)cc3Cl)O2)cc1)Oc1ccccc1 (relative stereo) | 10 | 125 mg/kg of feed | – |
| CC(=O)Nc1ccc(OC[C@H]2CO[C@](Cn3ccnc3)(c3ccc(Cl)cc3Cl)O2)cc1 (relative stereo) [NHCOCH3, cis-N-{4-[2-(2,4-dichlorophenyl)-2-(1H-imidazol-1-ylmethyl)-1,3-dioxolan-4-ylmethoxy]phenyl}acetamide] | 5 | 31 mg/kg of feed | – |
| CCNC(=O)N1CCN(c2ccc(OC[C@H]3CO[C@](Cn4ccnc4)(c4ccc(Cl)cc4Cl)O3)cc2)CC1 (relative stereo) | 10 | 125 mg/kg of feed | – |
| CC(=O)N1CCN(c2ccc(OC[C@H]3CO[C@](Cn4ccnc4)(c4ccc(Cl)cc4Cl)O3)cc2)CC1 (relative stereo) | 2.5 | 8 mg/kg of feed | – |
| CCOC(=O)N1CCN(c2ccc(OC[C@H]3CO[C@](Cn4ccnc4)(c4ccc(Cl)cc4Cl)O3)cc2)CC1 (relative stereo) [drawing 39, cis-ethyl 4-{4-[2-(2,4-dichlorophenyl)-2-(1H-imidazol-1-ylmethyl)-1,3-dioxolan-4-ylmethoxy]phenyl}-1-piperazinecarboxylate dihydrochloride hemihydrate] | – | – | lowest effective oral dose (vaginal candidosis in rats) (Candida albicans [1]; dihydrochloride hemihydrate): 10; ED50 (crop candidosis in turkeys) (Candida albicans [2]; Table I, dihydrochloride hemihydrate): 31 mg/kg of feed |
| CCOC(=O)Nc1ccc(OC[C@H]2CO[C@](Cn3ccnc3)(c3ccc(Cl)cc3Cl)O2)cc1 (relative stereo) [NHCOOC2 H5, cis-ethyl {4-[2-(2,4-dichlorophenyl)-2-(1H-imidazol-1-ylmethyl)-1,3-dioxolan-4-ylmethoxy]phenyl}carbamate] | 5 | 16 mg/kg of feed | – |
| CCCNC(=O)N1CCN(c2ccc(OC[C@H]3CO[C@](Cn4ccnc4)(c4ccc(Cl)cc4Cl)O3)cc2)CC1 (relative stereo) [cis-4-{4-[2-(2,4-dichlorophenyl)-2-(1H-imidazol-1-yl-methyl)-1,3-dioxolan-4-ylmethoxy]phenyl}-N-propyl-1-piperazinecarboxamide dihydrate] | 2.5 | 125 mg/kg of feed | – |
| Nc1ccc(OC[C@H]2CO[C@](Cn3ccnc3)(c3ccc(Cl)cc3Cl)O2)cc1[N+](=O)[O-] (relative stereo) [Example 4-NH2, cis-4-[2-(2,4-dichlorophenyl)-2-(1H-imidazol-1-ylmethyl)-1,3-dioxolan-4-ylmethoxy]-2-nitrobenzenamine] | – | – | minimal effective dose (Candida albicans [1]; Table III): 5 mg/kg; ED50 (crop candidosis in turkeys) (Candida albicans [2]; Table III): 31 mg/kg of feed |
| CNC(=O)N1CCN(c2ccc(OC[C@H]3CO[C@](Cn4ccnc4)(c4ccc(Cl)cc4Cl)O3)cc2)CC1 (relative stereo) | 2.5 | 16 mg/kg of feed | – |
| Clc1ccc([C@@]2(Cn3ccnc3)OC[C@H](COc3ccc(N4CCN(Cc5ccccc5)CC4)cc3)O2)c(Cl)c1 (relative stereo) [drawing 46] | 2.5 | 31 mg/kg of feed | – |
| O=C(Nc1ccc(OC[C@H]2CO[C@](Cn3ccnc3)(c3ccc(Cl)cc3Cl)O2)cc1)c1ccc(Br)cc1 (relative stereo) | 10 | 31 mg/kg of feed | – |
| CCN1CCN(c2ccc(OC[C@H]3CO[C@](Cn4ccnc4)(c4ccc(Cl)cc4Cl)O3)cc2)CC1 (relative stereo) [drawing 37] | 1.25 | 31 mg/kg of feed | – |
| CC(=O)N1CCN(c2ccc(OC[C@H]3CO[C@](Cn4cncn4)(c4ccc(Cl)cc4Cl)O3)cc2)CC1 (relative stereo) [COCH3, cis-1-acetyl-4-{4-[2-(2,4-dichlorophenyl)-2-(1H-1,2,4-triazol-1-ylmethyl)-1,3-dioxolan-4-yl-methoxy]phenyl}piperazine] | – | – | minimal effective dose (Candida albicans [1]; Table II): 1.25 mg/kg; ED50 (crop candidosis in turkeys) (Candida albicans [2]; Table II): 8 mg/kg of feed |
| S=C=Nc1ccc(OC[C@H]2CO[C@](Cn3ccnc3)(c3ccc(Cl)cc3Cl)O2)cc1 (relative stereo) [NCS, cis-1-[2-(2,4-dichlorophenyl)-4-(4-isothiocyanatophenoxymethyl)-1,3-dioxolan-2-ylmethyl]-1H-imidazole] | 5 | 125 mg/kg of feed | – |
| CN1CCN(c2ccc(OC[C@H]3CO[C@](Cn4cncn4)(c4ccc(Cl)cc4Cl)O3)cc2)CC1 (relative stereo) [CH3] | – | – | minimal effective dose (Candida albicans [1]; Table II): 1.25 mg/kg; ED50 (crop candidosis in turkeys) (Candida albicans [2]; Table II): 16 mg/kg of feed |
| Clc1ccc([C@@]2(Cn3ccnc3)OC[C@H](COc3ccc(N4CCNCC4)cc3)O2)c(Cl)c1 (relative stereo) | 5 | 125 mg/kg of feed | – |

— patent US4223036A, “1-(1,3-Dioxolan-2-ylmethyl)-1H-1,2,4-triazoles” (Janssen Pharmaceutica N.V., priority 1979, dated 1980)
